IC50 data for four compounds are collected here from patent publication US9115127B2 (AMGEN INC., priority 2010, dated 2015).

In the assay the target is T1, wild-type human ALK (cytoplasmic domain, amino acids 1058-1620, N-terminal GST fusion) (Homo sapiens, UniProt Q9UM73).
T1 construct: The cytoplasmic domain (amino acids 1058-1620) of wild-type human ALK; GST (N); made in house; host or cells: SF9 insect cells
T1 sequence (Q9UM73 1058-1620): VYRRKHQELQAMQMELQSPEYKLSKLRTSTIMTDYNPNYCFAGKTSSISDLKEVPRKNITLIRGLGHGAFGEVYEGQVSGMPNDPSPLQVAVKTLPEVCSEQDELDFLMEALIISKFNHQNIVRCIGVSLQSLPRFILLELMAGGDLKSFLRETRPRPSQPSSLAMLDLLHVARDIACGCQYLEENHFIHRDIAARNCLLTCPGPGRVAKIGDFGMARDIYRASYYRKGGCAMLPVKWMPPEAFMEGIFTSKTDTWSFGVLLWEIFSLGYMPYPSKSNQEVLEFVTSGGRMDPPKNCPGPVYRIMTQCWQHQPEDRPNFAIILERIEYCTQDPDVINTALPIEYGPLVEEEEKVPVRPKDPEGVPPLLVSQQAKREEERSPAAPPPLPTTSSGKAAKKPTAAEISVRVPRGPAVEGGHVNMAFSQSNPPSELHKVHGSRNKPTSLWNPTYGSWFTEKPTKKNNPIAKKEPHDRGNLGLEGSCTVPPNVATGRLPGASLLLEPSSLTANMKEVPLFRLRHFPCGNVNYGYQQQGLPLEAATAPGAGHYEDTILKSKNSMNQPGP
The assay can be described thus: ALK Inhibition in Enzyme Assay (Lance TR-FRET kinase assay). Type of assay: biochemical. A digest of the protocol: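 TR-FRET read-out (Eu-W1024 PT66 anti-phosphotyrosine plus streptavidin-allophycocyanin, 320 nm excitation) quantified biotinylated peptide phosphorylation by the purified kinase. Reaction ran 90 minutes at room temperature before quenching with 20 mM EDTA in Tris pH 7.5 buffer with NaCl, BSA and Tween-20.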
For `COc1ccc(C(=O)/N=c2\[nH]c3ccc(CN4CCC(C(C)(C)O)CC4)cc3n2[C@H]2CC[C@@H](C(=O)NC(C)C)CC2)cc1` [Example 151, (E)-N-(6-((4-(2-Hydroxypropan-2-yl)piperidin-1-yl)methyl)-1-(cis-4-(isopropylcarbamoyl)cyclohexyl)-1H-benzo[d]imidazol-2(3H)-ylidene)-4-methoxybenzamide], the half-inhibitory concentration (IC50) is less than 50 nM. Consider `O=C(/N=c1\[nH]c2cnc(OCCN3CCCCC3)cc2n1C1CCNCC1)c1ccccc1` [Example 65, (E)-N-(6-(2-(Piperidin-1-yl)ethoxy)-1-(piperidin-4-yl)-1H-imidazo[4,5-c]pyridin-2(3H)-ylidene)benzamide], for which the concentration for half-maximal inhibition (IC50) was 1000 to 5000 nM. The figure for `CC(C)NC(=O)[C@H]1CC[C@@H](n2/c(=N/C(=O)c3ccc(F)cc3)[nH]c3ccc(CN4CCOCC4)cc32)CC1` [Example 41, (E)-4-Fluoro-N-(1-(cis-4-(isopropylcarbamoyl)cyclohexyl)-6-(morpholinomethyl)-1H-benzo[d]imidazol-2(3H)-ylidene)benzamide] is less than 50 nM; for `CC(C)NC[C@H]1CC[C@@H](n2/c(=N/C(=O)c3ccc(F)cc3)[nH]c3ccc(CN4CCCCC4)cc32)CC1` [Example 36, (E)-4-Fluoro-N-(1-(cis-4-((isopropylamino)methyl)cyclohexyl)-6-(piperidin-1-ylmethyl)-1H-benzo[d]imidazol-2(3H)-ylidene)benzamide] it is 100 to 1000 nM.

The IC50 is the midpoint of a concentration-inhibition curve. A high value points to a need for much substance.
